Legend:
[1] = tested on: lung cancer (A-549) cell line; assay: MTT antiproliferative assay, A549; assay type: cell-based, human; details: 48 h; for IC50: Homo sapiens
Method: (§1) To evaluate the antiproliferative activity of the synthesized tetrahydroquinoline derivatives, three distinct human cancer cell lines were selected: breast cancer (MCF-7), lung cancer (A-549), and triple-negative breast cancer (MDA-MB-231). Furthermore, the synthesized compounds were tested on the VERO cell line to assess their potential toxicity. The VERO cell line, commonly derived from the kidney of an adult African green monkey, is widely used for toxicity studies. To evaluate the toxicity of the synthesized compounds, this cell line was utilized in the present study. The VERO cells were cultured using […] medium. The F-12 Ham’s medium was used to cultivate the lung cancer (A-549) cell lines. DMEM was used to cultivate the cell lines for breast cancer (MCF-7) and triple-negative breast cancer (MDA-MB-231). Because it feeds the cell line, 5% fatal bovine serum (FBS) was used to make the whole medium. To further protect the cell line from contamination, 0.5% pen–strep (penicillin + streptomycin) was added to all the mediums. All of these cell lines were cultivated in sterile, vented T-75 and/or T-25 flasks that were kept at 37 °C and supplied with 5% CO2. All of the compounds’ stock solutions were prepared in DMSO, and dilutions were made in the appropriate media so that the 96-well plates’ final DMSO content was not greater than 0.1%. First, each drug was tested in triplicate against every cell line at a 25 µM dose. […] On the first day, 1 × 10^4 cells were planted, and 24 h later, the chemicals were added. The MTT dye was added after the compounds and cells had been cultured for 48 h. After four hours, the MTT dye was taken out of the wells. Each well received 100 µL of DMSO to dissolve the formazan crystals that had formed as a result of the living cells, and absorbance at 570 nm was measured.

[2] = tested on: breast cancer (MCF-7) cell line; assay: MTT antiproliferative assay, MCF-7; assay type: cell-based; details: Homo sapiens, MCF7, 48 h
Method: as §1

[3] = tested on: triple-negative breast cancer (MDA-MB-231) cell line; assay: MTT antiproliferative assay, MDA-MB-231; assay type: cell-based, human; details: 48 h; for IC50: Homo sapiens
Method: as §1

VERO cell line = assay: MTT toxicity assay, VERO; assay type: cell-based, African green monkey; details: Chlorocebus sabaeus, 48 h, VERO normal cells
Method: as §1

A549 lung cancer cells = assay: Annexin V-FITC/PI apoptosis assay by flow cytometry; assay type: cell-based, human; details: 48 h
Method: A549 lung cancer cells were seeded in six-well plates and cultured in F-12 Ham’s medium supplemented with 5% FBS, 0.5% penicillin–streptomycin, and maintained in a 5% CO2 atmosphere at 37 °C for 24 h. […] Each condition was maintained in duplicate, with DMSO serving as the vehicle control, while 5-fluorouracil and Everolimus were used as positive controls. The treated cells, along with the DMSO control group, were incubated for 48 h. After incubation, the media were removed, and 1 mL of trypsin was added to each well for approximately one minute, followed by neutralization with 4 mL of fresh medium. Subsequent steps were carried out following the protocol of the Annexin V-FITC apoptosis detection kit (Ref No: BMS500FI, Lot No: 264043; Invitrogen, Waltham, MA, USA). The contents of each well were collected and transferred to centrifuge tubes, followed by centrifugation at 1000 RPM for 8 min. After removing the supernatant, the cell pellets were washed with PBS and subjected to another centrifugation step. The pellets were then resuspended in 1 mL of 1× binding buffer from the Annexin V-FITC apoptosis detection kit and incubated in the dark for 15–20 min. Subsequently, 500 µL of this cell suspension was transferred to individual plastic flow cytometry tubes. Each tube was supplemented with 10 µL of propidium iodide (PI) and 5 µL of Annexin V-FITC conjugate. The tubes were then incubated in the dark for 10 min before analyzing cell apoptosis using flow cytometry.

Row | Compound | IC50 [1] | IC50 [2] | IC50 [3] | A549 (IC50 µM) [1] | MDA-MB-231 (IC50 µM) [3] | IC50 (VERO cell line) | apoptosis (early and last phase combined) (A549 lung cancer cells; A549, 3 µM) | apoptosis (early and last phase combined) (A549 lung cancer cells; A549, 6 µM) | Necrosis (A549 lung cancer cells; A549, 3 µM) | Early Apoptosis (A549 lung cancer cells; A549, 6 µM) | Late Apoptosis (A549 lung cancer cells; A549, 6 µM) | Necrosis (A549 lung cancer cells; A549, 6 µM)
1 | O=C(Nc1ccc2c(c1)N(C(=O)C1CCOCC1)CCC2)c1ccc(OC(F)(F)F)cc1 [Compound 10a, N-(1-(Tetrahydro-2H-pyran-4-carbonyl)-1,2,3,4-tetrahydroquinolin-7-yl)-4-(trifluoromethoxy)benzamide] | 1.06 ± 0.02 µM | 4.34 ± 0.12 µM | 8.16 ± 0.33 µM | – | – | > 25 µM | – | – | – | – | – | –
2 | O=C(Nc1ccc2c(c1)N(C(=O)N1CCCCC1)CCC2)c1cc(C(F)(F)F)cc(C(F)(F)F)c1 [Compound 10h, N-(1-(Piperidine-1-carbonyl)-1,2,3,4-tetrahydroquinolin-7-yl)-3,5 bis(trifluoromethyl)benzamide] | 3.36 ± 0.71 µM | 0.087 ± 0.007 µM | 1.29 ± 0.032 µM | – | – | > 25 µM | – | – | – | – | – | –
3 | O=C(Nc1ccc2c(c1)N(C(=O)C1CCCCC1)CCC2)c1ccc(OC(F)(F)F)cc1 [Compound 10b, N-(1-(Cyclohexanecarbonyl)-1,2,3,4-tetrahydroquinolin-7-yl)-4-(trifluoromethoxy)benzamide] | 4.72 ± 0.11 µM | > 25 µM | 6.37 ± 0.19 µM | – | – | 9.82 ± 0.08 µM | – | – | – | – | – | –
4 | O=C(Nc1ccc2c(c1)N(C(=O)N1CCCCC1)CCC2)c1cc(F)cc(F)c1 [Compound 10f, 3,5-Difluoro-N-(1-(piperidine-1-carbonyl)-1,2,3,4-tetrahydroquinolin-7-yl)benzamide] | > 25 µM | 4.47 ± 0.013 µM | > 25 µM | no activity | no activity | > 25 µM | – | – | – | – | – | –

These reach a lower IC50 [1]. Values come first.

Row | IC50 [1] | IC50 [2] | IC50 [3] | A549 (IC50 µM) [1] | MDA-MB-231 (IC50 µM) [3] | Compound | IC50 (VERO cell line) | apoptosis (early and last phase combined) (A549 lung cancer cells; A549, 3 µM) | apoptosis (early and last phase combined) (A549 lung cancer cells; A549, 6 µM) | Necrosis (A549 lung cancer cells; A549, 3 µM) | Early Apoptosis (A549 lung cancer cells; A549, 6 µM) | Late Apoptosis (A549 lung cancer cells; A549, 6 µM) | Necrosis (A549 lung cancer cells; A549, 6 µM)
5 | 0.062 ± 0.01 µM | 0.58 ± 0.11 µM | 1.003 ± 0.008 µM | – | – | O=C(Nc1ccc2c(c1)N(C(=O)N1CCOCC1)CCC2)c1cc(F)cc(C(F)(F)F)c1 [Compound 10d, 3-Fluoro-N-(1-(morpholine-4-carbonyl)-1,2,3,4-tetrahydroquinolin-7-yl)-5-(trifluoromethyl)benzamide] | > 25 µM | 29.35% | 77.66% | – | – | – | –
6 | 0.68 ± 0.13 µM | 2.5 ± 0.16 µM | > 25 µM | – | – | O=C(Nc1ccc2c(c1)N(C(=O)N1CCCCC1)CCC2)c1cc(F)cc(C(F)(F)F)c1 [Compound 10g, 3-Fluoro-N-(1-(piperidine-1-carbonyl)-1,2,3,4-tetrahydroquinolin-7-yl)-5-(trifluoromethyl)benzamide] | > 25 µM | – | – | – | – | – | –
7 | 0.033 ± 0.003 µM | 2.89 ± 0.013 µM | 0.63 ± 0.02 µM | – | – | O=C(Nc1ccc2c(c1)N(C(=O)N1CCOCC1)CCC2)c1cc(C(F)(F)F)cc(C(F)(F)F)c1 [Compound 10e, N-(1-(Morpholine-4-carbonyl)-1,2,3,4-tetrahydroquinolin-7-yl)-3,5-bis(trifluoromethyl)benzamide] | 8.86 ± 0.03 µM | 75.7% | – | 0.05% | 70.00% | 20.37% | 0.01%
8 | 0.28 ± 0.008 µM | 0.72 ± 0.03 µM | 3.39 ± 0.37 µM | – | – | O=c1[nH]cc(F)c(=O)[nH]1 [Compound 5-FU, 5-fluorouracil, reference compound] | > 25 µM | – | – | – | – | – | –
9 | 0.09 ± 0.01 µM | 5.86 ± 0.07 µM | 7.76 ± 0.37 µM | – | – | CO[C@H]1C[C@@H]2CC[C@@H](C)[C@@](O)(O2)C(=O)C(=O)N2CCCC[C@H]2C(=O)O[C@H]([C@H](C)C[C@@H]2CC[C@@H](OCCO)[C@H](OC)C2)CC(=O)[C@H](C)/C=C(\C)[C@@H](O)[C@@H](OC)C(=O)[C@H](C)C[C@H](C)/C=C/C=C/C=C/1C [Everolimus, reference compound] | > 25 µM | – | – | – | – | – | –

Source: publication PMC11898650, “Morpholine-Substituted Tetrahydroquinoline Derivatives as Potential mTOR Inhibitors: Synthesis, Computational Insights, and Cellular Analysis” (Cancers, 2025)
